{
  "source": "ChEMBL document CHEMBL2074252",
  "about": "“The specific bisindolylmaleimide PKC-inhibitor GF 109203X efficiently modulates MRP-associated multiple drug resistance” (Biochem Biophys Res Commun, 1995)",
  "target": "Multidrug resistance-associated protein 1 (Homo sapiens, UniProt P33527)",
  "sequence (P33527 whole entry)": "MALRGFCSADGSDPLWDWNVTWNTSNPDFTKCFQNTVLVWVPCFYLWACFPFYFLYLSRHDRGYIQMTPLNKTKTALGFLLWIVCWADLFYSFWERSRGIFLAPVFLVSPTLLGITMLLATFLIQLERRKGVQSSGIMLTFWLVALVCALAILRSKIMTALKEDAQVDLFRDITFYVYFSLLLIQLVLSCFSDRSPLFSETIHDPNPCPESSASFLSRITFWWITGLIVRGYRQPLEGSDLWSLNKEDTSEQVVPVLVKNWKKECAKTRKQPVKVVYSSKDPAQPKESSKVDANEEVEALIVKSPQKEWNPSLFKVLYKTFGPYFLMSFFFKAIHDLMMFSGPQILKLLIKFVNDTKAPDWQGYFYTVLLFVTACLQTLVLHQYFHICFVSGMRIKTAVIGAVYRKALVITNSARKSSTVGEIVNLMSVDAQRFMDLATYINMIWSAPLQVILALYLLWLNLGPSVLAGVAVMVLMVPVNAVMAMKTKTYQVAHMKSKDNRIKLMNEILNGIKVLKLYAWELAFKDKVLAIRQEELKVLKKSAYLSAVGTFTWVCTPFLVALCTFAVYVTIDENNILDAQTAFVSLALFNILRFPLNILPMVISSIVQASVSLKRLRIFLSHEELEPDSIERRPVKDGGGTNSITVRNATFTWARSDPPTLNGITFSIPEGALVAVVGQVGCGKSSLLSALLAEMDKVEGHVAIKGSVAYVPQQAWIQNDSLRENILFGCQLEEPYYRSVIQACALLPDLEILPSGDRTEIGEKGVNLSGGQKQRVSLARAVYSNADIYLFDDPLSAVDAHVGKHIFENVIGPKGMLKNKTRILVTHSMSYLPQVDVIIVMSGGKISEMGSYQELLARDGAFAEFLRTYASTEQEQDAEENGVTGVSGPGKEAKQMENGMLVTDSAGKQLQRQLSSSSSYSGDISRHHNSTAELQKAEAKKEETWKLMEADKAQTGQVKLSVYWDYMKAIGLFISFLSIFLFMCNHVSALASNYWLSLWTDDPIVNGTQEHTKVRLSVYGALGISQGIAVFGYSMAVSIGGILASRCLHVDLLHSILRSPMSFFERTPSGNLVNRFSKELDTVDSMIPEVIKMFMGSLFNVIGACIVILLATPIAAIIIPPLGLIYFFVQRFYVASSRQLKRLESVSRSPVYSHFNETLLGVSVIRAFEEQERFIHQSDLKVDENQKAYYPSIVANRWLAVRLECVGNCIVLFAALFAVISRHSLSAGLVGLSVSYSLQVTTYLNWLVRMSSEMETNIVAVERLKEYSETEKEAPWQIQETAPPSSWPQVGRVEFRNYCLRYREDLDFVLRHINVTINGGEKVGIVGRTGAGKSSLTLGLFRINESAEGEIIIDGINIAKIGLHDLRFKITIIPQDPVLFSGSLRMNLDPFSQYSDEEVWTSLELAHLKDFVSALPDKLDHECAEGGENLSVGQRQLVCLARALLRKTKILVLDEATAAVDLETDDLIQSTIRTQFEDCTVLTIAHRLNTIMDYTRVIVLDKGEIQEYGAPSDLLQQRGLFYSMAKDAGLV",
  "experiment": "TP_TRANSPORTER: inhibition of Rhodamine 123 efflux (R123: 0.8 ug/mL, GF109203X: 10 uM) in HL60/AR cells",
  "type": "functional, cell-based",
  "data": [
    {"smiles": "CN(C)CCCn1cc(C2=C(c3c[nH]c4ccccc34)C(=O)NC2=O)c2ccccc21", "note": "[GF-109203]", "values": [
      {"measurement": "Activity", "value": "inhibitor [+]"}
    ]}
  ]
}
